Test results: patent US11292791B2 (priority 2017, dated 2022)

Molecular target: BRD4 (Homo sapiens (Human), UniProt O60885)
Conditions: read-out: BRD4 IC50 (μM gmean)

Structure (SMILES) | IC50 [µM]
COC(=O)N1c2ccc3c(nc(CC4CCN(C(C)=O)CC4)n3[C@@H]3CCC[C@@H](C(=O)O)C3)c2CC[C@@H]1C [Example 892] | 1 to 1000
COC(=O)N1c2ccc3c(nc(C(C)(O)c4ccccc4)n3C3CCCC(C(=O)O)C3)c2CC[C@@H]1C (some centres unmarked) [Example 542] | 1 to 1000
COC(=O)N1c2ccc3c(nc(Cc4ccccc4)n3C3CCC4(CC3)CNC4)c2CC[C@@H]1C [Example 96] | 1 to 1000
COC(=O)N1c2ccc3c(nc(CC(C(=O)O)c4cccc(C)c4)n3C3CCCOC3)c2CC[C@@H]1C (some centres unmarked) [Example 885] | 1 to 1000
COC(=O)N1c2ccc3c(nc(Cn4cc(Cl)cn4)n3[C@H]3CC[C@H](C(=O)O)CC3)c2CC[C@@H]1C [Example 737] | 1 to 1000
COC(=O)N1c2ccc3c(nc(Cc4ccccc4)n3C3CCNCC3)c2CC[C@@H]1C [Example 90] | 1 to 1000
COC(=O)N1c2ccc3c(nc(CCn4ccccc4=O)n3CC(=O)N3CC[C@H](NC(C)=O)C3)c2CC[C@@H]1C [Example 398] | 1 to 1000
COC(=O)N1c2ccc3c(nc(CC(C(=O)O)c4ccccc4)n3C3COCC(F)(F)C3)c2CC[C@@H]1C (some centres unmarked) [Example 891] | 1 to 1000
COC(=O)N1c2ccc3c(nc(Cc4cnc(Cl)c(C)n4)n3[C@@H]3CCC[C@@H](C(=O)O)C3)c2CC[C@@H]1C [Example 745] | 1 to 1000
COC(=O)N1c2ccc3c(nc(CC(C(=O)O)c4ccccc4)n3C3CCCC(OC)C3)c2CC[C@@H]1C (some centres unmarked) [Example 475] | 1 to 1000
COC(=O)N1c2ccc3c(nc(C(C)C(=O)N4CCCC4)n3C3CCCC(C(=O)O)C3)c2CC[C@@H]1C (some centres unmarked) [Example 732] | 1 to 1000
COC(=O)N1c2ccc3c(nc(CCn4ccccc4=O)n3CCNCc3cnn(C)c3)c2CC[C@@H]1C [Example 315] | 1 to 1000
COC(=O)N1c2ccc3c(nc(Nc4ccc(F)cc4)n3[C@@H]3CCC[C@@H](C(=O)O)C3)c2CC[C@@H]1C [Example 876] | 1 to 1000
COC(=O)N1c2ccc3c(nc(CC(C(=O)O)c4ccccc4)n3C3COCC(F)(F)C3)c2CC[C@@H]1C (some centres unmarked) [Example 602] | 1 to 1000
COC(=O)N1c2ccc3c(nc(Nc4ccc(F)cc4)n3[C@H]3CC[C@H](C(=O)O)CC3)c2CC[C@@H]1C [Example 880] | 1 to 1000
COC(=O)N1c2ccc3c(nc(CCn4ccccc4=O)n3CCNCC(=O)N3CCCC3)c2CC[C@@H]1C [Example 324] | 1 to 1000
COC(=O)N1c2ccc3c(nc(CCn4cccn4)n3CC(=O)N(C)CCO)c2CC[C@@H]1C [Example 350] | 1 to 1000
COC(=O)N1c2ccc3c(nc(CC(C(=O)O)c4ccc(C(F)F)cc4)n3C3COCC(F)(F)C3)c2CC[C@@H]1C (some centres unmarked) [Example 629] | 1 to 1000
COC(=O)N1c2ccc3c(nc(CCC4CCCC4)n3C3CCCC(C(=O)O)C3)c2CC[C@@H]1C (some centres unmarked) [Example 514] | 1 to 1000
COC(=O)N1c2ccc3c(nc(CCn4ccccc4=O)n3CC(=O)N3CCn4ccnc4C3)c2CC[C@@H]1C [Example 402] | 1 to 1000
COC(=O)N1c2ccc3c(nc(CC(C(=O)O)c4ccc(C)cc4)n3C3CCCOC3)c2CC[C@@H]1C (some centres unmarked) [Example 829] | 1 to 1000
COC(=O)N1c2ccc3c(nc(C(C)Cn4cccn4)n3C3CCS(=O)(=O)CC3)c2CC[C@@H]1C (some centres unmarked) [Example 754] | 1 to 1000

Structure (SMILES) | IC50 [µM]
COC(=O)N1c2ccc3c(nc(CCn4cccn4)n3CC(=O)N3CCC(CO)CC3)c2CC[C@@H]1C [Example 353] | 1 to 1000
COC(=O)N1c2ccc3c(nc(Cc4cccc(OC(F)F)n4)n3[C@@H]3CCC[C@@H](C(=O)O)C3)c2CC[C@@H]1C [Example 593] | 1 to 1000
COC(=O)N1c2ccc3c(nc(C[C@H](C(=O)O)c4ccccc4)n3CCN(C)C)c2CC[C@@H]1C [Example 138, (S)-3-((S)-3-(2-(dimethylamino)ethyl)-6-(methoxycarbonyl)-7-methyl-6,7,8,9-tetrahydro-3H-imidazo[4,5-f]quinolin-2-yl)-2-phenylpropanoic Acid] | 1 to 1000
COC(=O)N1c2ccc3c(nc(Cc4ccccc4)n3[C@@H]3CCC[C@H](c4nnn[nH]4)C3)c2CC[C@@H]1C [Example 279, methyl (S)-3-((1R,3S)-3-(1H-tetrazol-5-yl)cyclohexyl)-2-benzyl-7-methyl-3,7,8,9-tetrahydro-6H-imidazo[4,5-f]quinoline-6-carboxylate] | 1 to 1000
COC(=O)N1c2ccc3c(nc(CC(C(=O)O)c4ccccc4)n3-c3ccc(C#N)cc3)c2CC[C@@H]1C (some centres unmarked) [Example 680] | 1 to 1000
COC(=O)N1c2ccc3c(nc(CCn4ccccc4=O)n3CC(=O)NCC(=O)N3CCCC3)c2CC[C@@H]1C [Example 383] | 1 to 1000
COC(=O)N1c2ccc3c(nc(C(C)Cc4cnn(C)c4)n3C3CCCC(C(=O)O)C3)c2CC[C@@H]1C (some centres unmarked) [Example 867] | 1 to 1000
COC(=O)N1c2ccc3c(nc(Oc4ccccc4)n3[C@H]3CC[C@H](C(=O)O)CC3)c2CC[C@@H]1C [Example 908] | 1 to 1000
COC(=O)N1c2ccc3c(nc(Cc4ccccc4)n3-c3cccc(C(=O)O)c3)c2CC[C@@H]1C [Example 44] | 1 to 1000
COC(=O)N1c2ccc3c(nc(CC(C(=O)O)c4ccc(F)c(F)c4)n3C3CCCC3)c2CC[C@@H]1C (some centres unmarked) [Example 447] | 1 to 1000
COC(=O)N1c2ccc3c(nc(CCn4cccn4)n3CCN3CC4(COC4)C3)c2CC[C@@H]1C [Example 228] | 1 to 1000
COC(=O)N1c2ccc3c(nc(Cc4ccccc4)n3[C@@H]3CCCS(=O)(=O)C3)c2CC[C@@H]1C [Example 265, methyl (S)-2-benzyl-3-((R)-1,1-dioxidotetrahydro-2H-thiopyran-3-yl)-7-methyl-3,7,8,9-tetrahydro-6H-imidazo[4,5-f]quinoline-6-carboxylate] | 1 to 1000
COC(=O)N1c2ccc3c(nc(CCn4ccccc4=O)n3CC(=O)N[C@H]3CC[C@H](CO)CC3)c2CC[C@@H]1C [Example 377] | 1 to 1000
COC(=O)N1c2ccc3c(nc(Cn4cc(Cl)cn4)n3[C@@H]3CCC[C@@H](C(=O)O)C3)c2CC[C@@H]1C [Example 643] | 1 to 1000
COC(=O)N1c2ccc3c(nc(C(C)Cn4ccc(C)n4)n3C3CCC(C(=O)O)CC3)c2CC[C@@H]1C (some centres unmarked) [Example 824] | 1 to 1000
COC(=O)N1c2ccc3c(nc(CC(C(=O)O)c4cccc(F)c4)n3C3CCCOC3)c2CC[C@@H]1C (some centres unmarked) [Example 490] | 1 to 1000
COC(=O)N1c2ccc3c(nc(CCn4cccn4)n3CCNCc3cccnc3)c2CC[C@@H]1C [Example 294] | 1 to 1000
COC(=O)N1c2ccc3c(nc(Cc4ccc(OC5CC5)nc4)n3[C@@H]3CCC[C@@H](C(=O)O)C3)c2CC[C@@H]1C [Example 562] | 1 to 1000
COC(=O)N1c2ccc3c(nc(Cc4ccc(C)c(F)c4)n3[C@@H]3CCC[C@@H](C(=O)O)C3)c2CC[C@@H]1C [Example 471] | 1 to 1000
COC(=O)N1c2ccc3c(nc(C(C)Cn4cc(Cl)cn4)n3C3CCCC(C(=O)O)C3)c2CC[C@@H]1C (some centres unmarked) [Example 443] | 1 to 1000
COC(=O)N1c2ccc3c(nc(CCn4cccn4)n3CC(=O)NCc3cc(C)no3)c2CC[C@@H]1C [Example 363] | 1 to 1000
COC(=O)N1c2ccc3c(nc(Cc4ccccc4)n3C3CCN(c4nnn[nH]4)CC3)c2CC[C@@H]1C [Example 278] | 1 to 1000

Structure (SMILES) | IC50 [µM]
COC(=O)N1c2ccc3c(nc(N(C)c4ccc(C#N)cc4)n3[C@@H]3CCC[C@@H](C(=O)O)C3)c2CC[C@@H]1C [Example 681] | 1 to 1000
COC(=O)N1c2ccc3c(nc(CCn4ccccc4=O)n3CC(=O)N3CC[C@H](O)C3)c2CC[C@@H]1C [Example 399] | 1 to 1000
COC(=O)N1c2ccc3c(nc(Cc4ccccc4)n3C3CCS(=O)(=O)CC3)c2CC[C@@H]1C [Example 254] | 1 to 1000
COC(=O)N1c2ccc3c(nc(CC4CCC(C#N)CC4)n3C3CCCC(C(=O)O)C3)c2CC[C@@H]1C (some centres unmarked) [Example 726] | 1 to 1000
COC(=O)N1c2ccc3c(nc(CC(C(=O)O)c4cccc(C(F)F)c4)n3C3CCCOC3)c2CC[C@@H]1C (some centres unmarked) [Example 868] | 1 to 1000
COC(=O)N1c2ccc3c(nc(CCC4CCOCC4)n3[C@@H]3CCC[C@@H](C(=O)O)C3)c2CC[C@@H]1C [Example 648] | 1 to 1000
COC(=O)N1c2ccc3c(nc(COC4CCOCC4)n3[C@H]3CC[C@H](C(=O)O)CC3)c2CC[C@@H]1C [Example 759] | 1 to 1000
COC(=O)N1c2ccc3c(nc(CC4CCCCC4O)n3C3CCCC(C(=O)O)C3)c2CC[C@@H]1C (some centres unmarked) [Example 614] | 1 to 1000
COC(=O)N1c2ccc3c(nc(CCn4cccn4)n3CCN3CCC(O)CC3)c2CC[C@@H]1C [Example 298] | 1 to 1000
COC(=O)N1c2ccc3c(nc(Cc4ccc(OC)c(F)c4)n3C3CCNCC3)c2CC[C@@H]1C [Example 103] | 1 to 1000
COC(=O)N1c2ccc3c(nc(Cc4ccccc4)n3[C@H]3C[C@H](C(=O)O)C3)c2CC[C@@H]1C [Example 21] | 1 to 1000
COC(=O)N1c2ccc3c(nc(C(C)Cn4cccn4)n3C3CCCC(C(=O)O)C3)c2CC[C@@H]1C (some centres unmarked) [Example 583] | 1 to 1000
COC(=O)N1c2ccc3c(nc(C(C)Cn4cc(C)cn4)n3C3CCS(=O)(=O)C3)c2CC[C@@H]1C (some centres unmarked) [Example 949] | 1 to 1000
COC(=O)N1c2ccc3c(nc(Cc4cnc(Cl)cn4)n3[C@@H]3CCC[C@@H](C(=O)O)C3)c2CC[C@@H]1C [Example 669] | 1 to 1000
COC(=O)N1c2ccc3c(nc(C(C)Cn4cc(C)cn4)n3C3CCS(=O)(=O)C3)c2CC[C@@H]1C (some centres unmarked) [Example 958] | 1 to 1000
COC(=O)N1c2ccc3c(nc(CC(C(=O)O)c4ccccc4)n3-c3ccc(C#N)cc3)c2CC[C@@H]1C (some centres unmarked) [Example 914] | 1 to 1000
COC(=O)N1c2ccc3c(nc(CCn4ccccc4=O)n3CCS(C)(=O)=O)c2CC[C@@H]1C [Example 273] | 1 to 1000
COC(=O)N1c2ccc3c(nc(C(C)Cn4cccn4)n3C3CCS(=O)(=O)C3)c2CC[C@@H]1C (some centres unmarked) [Example 771] | 1 to 1000
COC(=O)N1c2ccc3c(nc(Cc4cncc(C(C)C)n4)n3[C@@H]3CCC[C@@H](C(=O)O)C3)c2CC[C@@H]1C [Example 611] | 1 to 1000
COC(=O)[C@@H]1CCC[C@@H](n2c(Cc3ccccc3)nc3c4c(ccc32)N(C(=O)OC)[C@@H](C)CC4)C1 [Example 840] | 1 to 1000
COC(=O)N1c2ccc3c(nc(CCn4ccccc4=O)n3CC(=O)NCc3cccnc3)c2CC[C@@H]1C [Example 375] | 1 to 1000
